Data on three molecules can be found in patent US20060134212A1, “Lercanidipine immediate release compositions” (Forest Laboratories, Inc., priority 2004, published 2006).

For data set [1] the following is noted: species not given; cited from earlier work.
In the next data set the test system is Caco-2 cell monolayers. Nature of the data set: Caco-2 cell analysis: lercanidipine permeation with different concentrations of Polysorbate 80 (Tween 80). Type of data set: in vitro ADME. The source says:
The objective of this study was to investigate the effects of surfactant on the permeability characteristics of lercanidipine across Caco-2 cell monolayers. Caco-2 cell monolayers have been used as a model of intestinal mucosa for predicting oral drug absorption (P. Artursson. Epithelial transport of drugs in cell culture. I: A model for studying the passive diffusion of drugs over intestinal absorptive (Caco-2) cells. JPharm (1990)).
Transport experiments for the permeation characteristics of lercanidipine in the presence of different concentrations of Polysorbate 80 (Tween 80) were conducted as follows. […] The samples were collected and analyzed for lercanidipine.
The permeation characteristics lercanidipine across Caco-2 cell monolayers in the presence of different concentrations of Tween 80 were analyzed using four dosing solutions. […]
Papp values will be calculated using the equation: Papp=ΔQ/Δt/(A*C0) where ΔQ/Δt is the linear appearance rate of mass in the receiver solution, A is the filter/cell surface area (1 cm^2 for 12-well system), and C0 is the initial concentration of the test compounds.

A further data set deals with Caco-2 cell. As to conditions: Caco-2 cell apparatus; cited from earlier work.
For data set [2] the following is noted: cited from earlier work.
For data set [3] the following is noted: cited from earlier work. The source holds these as a separate data set.

For the molecule `COC(=O)C1=C(C)NC(C)=C(C(=O)OC(C)(C)CN(C)CCC(c2ccccc2)c2ccccc2)C1c1cccc([N+](=O)[O-])c1.Cl` (stereo not shown) [Form I], the “time to maximum concentration (Tmax), one form compared to the other” value in data set [1] was “shorter time to maximum concentration”.

Consider `COC(=O)C1=C(C)NC(C)=C(C(=O)OC(C)(C)CN(C)CCC(c2ccccc2)c2ccccc2)C1c1cccc([N+](=O)[O-])c1.Cl` (stereo not shown) [Form II], for which, in data set [1], the “plasma concentration (AUCo-t), Form II compared to Form I” value is “higher plasma concentration” and the “time to maximum concentration (Tmax), one form compared to the other” value is recorded as “delayed time of maximum concentration”.

Regarding `COC(=O)C1=C(C)NC(C)=C(C(=O)OC(C)(C)CN(C)CCC(c2ccccc2)c2ccccc2)C1c1cccc([N+](=O)[O-])c1` (stereo not shown) [lercanidipine, methyl 1,1,N-trimethyl-N-(3,3-diphenylpropyl)-2-aminoethyl 1,4-dihydro-2,6-dimethyl-4-(3-nitrophenyl)pyridine-3,5-dicarboxylate], the “increase in Caco-2 permeability upon the addition of surfactant” value in the data set with Caco-2 cell monolayers (50 μg/ml Lerc in HBSS, pH 6.8, Tween 80 added vs none) was “three fold increase in permeability”. Further, the “change of Caco-2 permeability at higher surfactant” value in the data set on Caco-2 cell monolayers (surfactant in transport buffer increased ten fold from 0.02 to 0.2) is “permeability of lercanidipine decreases”. Further, the Papp entry in the data set with Caco-2 cell is “about 0.5×10^−7 cm/s”. In data set [2] (oral administration), the “time of peak plasma level following dosage” value is 1 to 3 h. Moreover, in data set [2] (simultaneous intake of food (especially high fat) vs administration without food), the “increase of amount of lercanidipine absorbed with food” value is “between three and four times”. Moreover, the solubility result in data set [3] (at pH 5 and above) is “less than 20 μg/ml”. Also, the aqueous solubility result in data set [3] (water) is recorded as “about 5 μg/ml”.
